Active and inactive are the calls of the source.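 Rule for the calls: active = compounds giving half or more protection of infected cells from virus-caused growth loss, again on retest; inactive = the rest.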
Test system: CEM cells HIV-1 protection, formazan growth assay
Assay: NCI AIDS Antiviral Assay
Details: for IC50: measured here: growth of uninfected CEM cells
How it was run: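 CEM (human) cells, HIV-1 infected vs uninfected, 5-point dosing, formazan growth read-out. Retest threshold 50% protection.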

Structure (SMILES)	EC50 [µM]	IC50 [µM]	outcome
Cc1cc(O)cc(O)c1N=Nc1ccc([N+](=O)[O-])cc1	> 200	3.47	–
C=C1CC(Cn2ccc(=O)[nH]c2=O)(c2ccc(OC)cc2)OC1=O (centres undefined)	> 200	2.75	–
COc1cc(CC2c3cc(OC)c(OC)cc3CCN2C)c(Oc2cc3c(cc2OC)-c2c(O)c(OC)cc4c2C(C3)N(C)CC4)cc1OC (centres undefined)	–	–	inactive
Cc1nnc(N=Nc2c(O)[nH]c3c(Cl)cc(Cl)cc23)n1N	> 16.6	> 16.6	–
O=C1CC(C2(O)C(=O)Nc3ccc([N+](=O)[O-])cc32)c2ccccc21 (centres undefined)	> 55	> 55	–
C[C@@H]1CC(=O)C2CCCC1C2=O (some centres undefined)	–	–	inactive
C=C(OC1C(C)=C2C(C1OC(=O)CCCCCCC)C(C)(OC(C)=O)CC(OC(=O)CCC)C1(O)C2OC(=O)C1(C)O)/C(C)=C/C (centres undefined)	> 2	0.00282	–
CC(=O)SCCC(NC(=S)Nc1ccccc1)P(=O)(Oc1ccccc1)Oc1ccccc1 (centres undefined)	> 200	49	–
CCCCCc1c(CCCC)c(=O)[nH]c2cc(CNCC(OC)OC)ccc12	> 200	11	–
Clc1cnc(Oc2ccccc2)c2ccccc12	> 200	64.6	–
Cc1cc(Cl)c(O)c(-c2cc(-c3cccc([N+](=O)[O-])c3)c3c(N)[nH]c(=S)nc3n2)c1	> 200	3.89	–
O=C1NC2c3c(I)sc(I)c3C(=O)C2O1 (centres undefined)	0.603	1.12	–
COc1ccc2c(c1)C(C)(C)Oc1cc3oc(C(=O)O)cc(=O)c3cc1-2	> 355	> 355	–
Cc1ccnc(NS(=O)(=O)c2ccc(NC(=O)Nc3ccc(Cl)c(C(F)(F)F)c3)cc2)n1	–	–	inactive
CC(=O)O[C@@]12[C@@H]3O[C@@]4(O)C[C@]5(C)[C@H]6C[C@@](C(C)C)(O[C@H]5c5ccoc5)O[C@H]1[C@]6(C4)O[C@]2(O)C(C)=CC3(C)C	> 100	52.5	–
C/C(=N/NC(=O)c1ccccc1O)c1ccc(/C(C)=N\NC(=O)c2ccccc2O)c2nc3cc(C)c(C)cc3nc12	> 64.6	> 64.6	–
CCc1cccc(CC)c1Nc1nc2c(s1)C(=O)c1ccccc1C2=O	> 200	33.1	–
COC(=O)C12CC(C3CC31)C1CC12 (centres undefined)	> 251	> 251	–
O=C(CC1(O)C(=O)Nc2c(Cl)cc(Cl)cc21)c1cccc2ccccc12 (centres undefined)	> 67.6	> 67.6	–
[N-]=[N+]=NC1(Cc2ccccc2)C(=O)c2cccc3c2N(CCC3)C1=O (centres undefined)	–	–	inactive
O=C1C=CC(=O)C(CNc2ccc(C(=O)OC34CC5CC(CC(C5)C3)C4)cc2)=C1	> 200	10.5	–

Structure (SMILES)	EC50 [µM]	IC50 [µM]	outcome
C(=N\Nc1nnc(-c2nnc(N/N=C/c3ccccc3)o2)o1)/c1ccccc1	> 200	> 200	–
CCOC(=O)/C(=C\c1c[nH]c2ccccc12)P(=O)(OCC)OCC	> 200	38	–
CC1(C)OC2OC(C(COS(=O)(=O)C(F)(F)F)N=[N+]=[N-])C(OC(=O)c3ccccc3)C2O1 (centres undefined)	> 200	> 200	–
CC(C)(C)c1cc[n+](C[n+]2ccc(C(C)(C)C)cc2)cc1	> 200	> 200	–
O=c1oc2c(-c3ccccc3)n[nH]c(=O)c2c2c1CCCC2	> 170	> 170	–
CCC(CO)COC(=O)/C=C/C(=O)OCC(CC)CO (centres undefined)	–	–	inactive
CC(=O)O[C@]1(C)OC(=O)[C@@H](C)N1[N+](=O)[O-]	–	–	inactive
Cc1cc(S(=O)(=O)NC2=NCCCN2)c(S)cc1Cl	> 257	64.6	–
CCN(CC)CC(=O)Nc1cc(Cl)ccc1C	> 200	> 200	–
O=S(=O)(SCCO)c1ccccc1	> 813	57.5	–
NC(CCCCCCCCCCP(=O)(O)O)C(=O)O (centres undefined)	> 200	> 200	–
COC(=O)C(C#CCCCCC#CC(NC(=O)OCc1ccccc1)(C(=O)OC)C(F)(F)F)(NC(=O)OCc1ccccc1)C(F)(F)F (centres undefined)	> 200	138	–
CC(C)CC(=O)N1CCN(C(=O)CC(C)C)c2ccccc21	> 603	589	–
COc1cc(C(=O)C/C(CCC(=O)Nc2ccc(Cl)cc2C)=N/NC(=O)C(N)=O)ccc1O	–	–	inactive
CNNCc1ccc(C(=O)NC(C)C)cc1	> 977	229	–
Cc1cn(Cc2ccccc2CCO)c(=O)[nH]c1=O	191	479	–
COc1cccc(-c2nccc3c(OCc4ccccc4)c(OC)c(OC)cc23)c1	–	–	inactive
Cc1ccc(NC(=O)CCc2nnc3s/c(=C\C=C\c4ccccc4)c(=O)n23)cc1	> 61.7	> 61.7	–
Cc1cc(O)cc2c1O[C@@]1(C)CCC3[C@@]4(C)CC[C@H](O)C(C)(C)C4CC[C@@]3(C)[C@H]1C2 (some centres undefined)	–	–	inactive
COc1ccc2oc(=N)c(C(N)=S)cc2c1	> 200	26.9	–
CO[C@@]12[C@H](COC(N)=O)C3=C(C(=O)C(C)=C(N)C3=O)N1C[C@@H]1N[C@@H]12	> 17.4	0.794	–

Structure (SMILES)	EC50 [µM]	IC50 [µM]	outcome
CC1(C)CC[C@]2(C(=O)O)C(O)CC3(C)C(=CCC4[C@@]5(C)CC[C@H](OS(=O)(=O)O)C(C)(C)C5CC[C@]43C)[C@@H]2C1 (some centres undefined)	> 219	> 219	–
COc1cc2c(cc1OC)C13CC(=O)N(C(C)=O)N1CCCN3C2=O (centres undefined)	> 145	> 145	–
C[N+](C)(C)CCOP(=O)([O-])OCCNC(=O)c1ccc2ccccc2c1	> 200	> 200	–
CSCCC(NC(=O)c1ccccc1C(=O)O)C(=O)O (centres undefined)	> 200	> 200	–
CCOC(=O)NC(=O)c1cn(CCN2CCN(C(=O)CCCCCCCCCCNc3ncnc4c3ncn4C3OC(CO)C(O)C3O)CC2)c(=O)[nH]c1=O (centres undefined)	–	–	inactive
NC1C2CC3CC(C2)CC1(N)C3 (centres undefined)	–	–	inactive
CC(C)(C)OC(=O)NCCCCCCC(=O)Cc1ccccc1	> 200	117	–
CC(C)=CCC/C(C)=C/CCC1(C)C2COC(=O)C21 (centres undefined)	> 200	46.8	–
C=CCCCCOCOCCOC	> 138	> 138	–
O=C1c2ccccc2C(=O)N1C/C=N/NS(=O)(=O)c1ccc(F)cc1	> 363	> 363	–
COC1=CC2OC3OC(=O)CC3C2C(OCc2ccccc2)=C1 (centres undefined)	> 31.6	> 31.6	–
COC(=N)C1(C#N)NC(c2ccsc2)C(C#N)(C#N)NC1c1ccsc1 (centres undefined)	> 200	56.2	–
COc1ccc2[nH]cc(CCNC(C)=O)c2c1	> 200	> 200	–
CN(C)Cc1c[nH]c2c1S/C(=C/c1ccccc1)C2=O	> 178	16.6	–
Cc1ccc(N2C3=C(CC4=C2CC(C)(C)CC4=O)C(=O)CC(C)(C)C3)cc1	> 100	> 100	–
CC(=O)CC(N)=O	–	–	inactive
CC(=O)Nc1ccc(S(=O)(=O)N/N=C/c2cc(I)cc([N+](=O)[O-])c2O)cc1	> 501	79.4	–
CC(=O)/C=C/CCC(=O)/C=C/C(=O)OC(CCC(=O)/C=C/C(=O)O)CC(C)=O (centres undefined)	> 200	115	–
CC(C)OP(=O)(OC(C)C)C(=Nc1ccncc1)NNc1ccc([N+](=O)[O-])cc1	> 61.7	> 61.7	–
CCOC(=O)NN(CCOS(=O)(=O)c1ccc(C)cc1)CCOS(=O)(=O)c1ccc(C)cc1	> 200	120	–
OC(C(c1ccccc1)c1ccccn1)(C(F)(F)F)C(F)(F)F (centres undefined)	> 200	> 200	–

Source: PubChem BioAssay AID179 (DTP/NCI, 2004)
